Patent publication US20210393606A1, “THERAPEUTIC AGENT FOR FRONTAL LOBE DYSFUNCTION” (KYOWA HAKKO KIRIN CO., LTD., priority 2015, published 2021)

Key:
[1] = system: medial prefrontal dopaminergic terminal-lesioned rat; experiment: Object recognition test using medial prefrontal dopaminergic terminal-lesioned rat; assay type: in vivo; details: lesioned rats
Source text: The object recognition test is known as an evaluation system of cognitive function utilizing properties of animal to willingly explore a new object (Behavioural Brain Research 31, p. 47 (1988)). An animal is placed in an apparatus containing two identical objects and allowed to freely explore (acquisition trial), after which one of the objects in the apparatus is changed to one having a different shape (novel object) and the animal is allowed to freely explore (test trial). […] In this test, such property is evaluated as an index of cognitive function.
CD(SD)IGS rat (male, Charles River) received Pentobarbital sodium salt (Tokyo Chemical Industry Co., Ltd., 30 mg/kg) intraperitoneally and fixed on a brain stereotaxis apparatus (SR-6, Narishige kagaku kikai kenkyusho) under anesthesia. Using a microinjection pump (CMA/100, Carnegie Medicine), dopaminergic neurotoxin, 6-hydroxidopamine hydrochloride (6-OHDA, Sigma-Aldrich) was injected over about 1 min at (1) 3.2 mm anterior, 0.8 mm left lateral and 3.0 mm ventral, (2) 3.2 mm anterior, 0.8 mm right lateral and 3.0 mm ventral, (3) 3.2 mm anterior, 0.8 mm left lateral and 5.0 mm ventral, (4) 3.2 mm anterior, 0.8 mm right lateral and 5.0 mm ventral, (5) 4.2 mm anterior, 0.8 mm left lateral and 4.0 mm ventral, and (6) 4.2 mm anterior, 0.8 mm right lateral and 4.0 mm ventral, each from the bregma suture of the rats to lesion dopaminergic terminals in the medial prefrontal cortex. 6-OHDA was prepared at a concentration of 4 μg/μL, injected at a flow rate of 1 μL/min over 1 min, and stood for 1 min. In the sham operated group, a stainless cannula was inserted into the same coordinates. […] The dosing volumes of pentobarbital sodium and desipramine hydrochloride were calculated at 1 and 5 mL/kg based on the body weight measured on the administration day. […]
To familiarize the rats with the experimenter, they were handled for 3 days before the test. […] The time spent in exploration (sniffing) each object of the rats in the test trial was measured, and the ratio (%) relative to the total exploration time was calculated. […]

[2] = system: NAC61-95-treated Slc:ICR mice (α-synucleinopathy model); experiment: Spontaneous alternation task (Y-maze) in NAC61-95-treated α-synucleinopathy model mice; assay type: in vivo, mouse; details: NAC61-95 mice
Description: (§1) By reference to articles (Science, 338, p. 949 (2012); Behavioral Brain Reexplore, 208, p. 274 (2010)), an animal model capable of confirming a treatment and/or prophylactic effect on α-synucleinopathy, for example, Lewy body disease (for example, cognitive impairment in Parkinson's disease, diffuse Lewy body disease, dementia with lewy bodies, movement disorder associated with Lewy body disease and the like) was generated as follows.
The cognitive function was evaluated using a spontaneous alternation task. The spontaneous alternation task is known as an evaluation system of cognitive function utilizing properties of animal to willingly explore a novel environment (Neuroscience and Biobehavioral Reviews 28, p. 497 (2004)). […] The motor function was evaluated by analyzing gait function in natural walk conditions using a gait analysis system. […]
Mice were brought into the experiment room on the previous day of test for habituation. […] Entry of all four limbs of a mouse into one arm was defined as entry into arm, and the order of entry of the mice into the arm was recorded. A behavior of continuous entry into all three different arms was defined as spontaneous alternation behavior, and the percentage of alternation behavior was calculated by the following calculation formula. […]

[3] = system: NAC61-95-treated Slc:ICR mice (α-synucleinopathy model); experiment: Gait analysis (CatWalk XT) in NAC61-95-treated α-synucleinopathy model mice; assay type: in vivo, mouse; details: NAC61-95 mice
Description: as §1
The cognitive function was evaluated using a spontaneous alternation task. The spontaneous alternation task is known as an evaluation system of cognitive function utilizing properties of animal to willingly explore a novel environment (Neuroscience and Biobehavioral Reviews 28, p. 497 (2004)). That is, if the animal remembers the arm previously entered in exploration in a Y-maze apparatus, the behavior of spontaneous entry into a different arm is expressed by an alternation behavior rate, and used as an index of cognitive function. The motor function was evaluated by analyzing gait function in natural walk conditions using a gait analysis system.
NAC61-95 (custom, Sigma) was dissolved in PBS to prepare 4 μg/μL NAC61-95 solution.
Under pentobarbital (Somnopentyl, Kyoritsuseiyaku, 50 mg/kg, i.p.) anesthesia, 5 μL of NAC61-95 solution was injected using a Hamilton syringe (10 μL) equipped with a double needle (27G, needle length 3 mm) into the right lateral cerebral ventricle of Slc:ICR mice (male, Japan SLC) over about 1 min, and stood for 1 min to induce cognitive impairment and/or movement disorder. The sham treatment group was injected with 5 μL of PBS.
A gait analysis system (CatWalk XT, ver. 9.1, Noldus) was used. The system was constituted of a walkway with pressure dependent luminescence glass and a light source, luminescence ceiling, highly sensitive highspeed camera and analysis software, and the gait was analyzed by digitizing the brightness of the light emitted by the pressure dependent luminescence glass in response to the pressure. The gait data was automatically recorded and analyzed by the analysis software only when the mice moved straight forward without stopping in the predetermined area on the walkway.
The mice were brought into the experiment room without light and habituated for not less than 1 hr. The mice were placed in the apparatus, and allowed to walk freely until 6 running data were obtained for each mouse. The earliest three analyzable running data were used, and mean was calculated. By reference to an article relating to movement disorder in Parkinson's disease animal model (Journal of Biomedical Science 17, p. 9 (2010)), a decrease in the maximum contact area (Total surface area of certain paw at the moment of maximum paw contact) and print area (total surface area of the paw print), as well as change in the gait pattern (sequence of contact of 4 paws) were used as indices of movement disorder.
At 60 min before the test, compound (I) (suspended in 0.5 w/v % aqueous MC solution, and prepared to 0.5 mL per 100 g body weight of mouse on the administration day) was orally administered at a dose of 0.1 mg/kg, or a vehicle (0.5 w/v % aqueous MC solution) free of the test compound was orally administered at 0.5 mL per 100 g body weight of mice on the administration day.

[4] = system: SLC: ICR male mice injected with α-synuclein or NAC61-95; experiment: α-Synucleinopathy model (α-synuclein or NAC61-95 injected mice), behavioral pharmacological evaluation, Experimental Example 2; assay type: in vivo, mouse; details: appropriate dose, a few hours after administration; written in present tense, no data
Source text: as §1, with “is generated.” for “was generated as follows.”
An appropriate dose of a solution of α-synuclein (rPeptide, S-100) or NAC61-95 (custom, Sigma) dissolved in phosphate buffered saline (PBS) is injected to the striatum or lateral cerebral ventricle of SLC: ICR male mice to induce cognitive impairment and/or movement disorder. After confirmation of the pathology induction, an appropriate dose of compound (I) is administered to the mice.

[5] = 0.3 mg/kg orally 60 min before test, 3 min test trial, mean±standard error
[6] = 0.1 mg/kg orally 60 min before test, mean±standard error

Cc1ccc(C(=O)Nc2nc(-c3ccco3)c(C(=O)C3CCOCC3)s2)cn1 [compound (I)] was tested, and the “ratio (%) of exploration time, familiar object” value [1, 5] was 34.97 ± 2.88%, the “ratio (%) of exploration time, novel object” value [1, 5] was 65.03 ± 2.88% and the “exploration time of the novel object compared with the familiar object” value ([1]; 0.3 mg/kg orally, paired t-test p<0.001) was “significantly longer”. The “alternation behavior (%)” value ([2]; 0.1 mg/kg orally 60 min before test, Y-maze 7 min, mean±standard error) was 69.5 ± 2.4%, the “alternation behavior compared to the vehicle administration group” value ([2]; 0.1 mg/kg orally, Student's t-test p<0.01) was “significantly high” and the “gait pattern AA” value ([3]; AA: right forepaw → right hindpaw → left forepaw → left hindpaw, 0.1 mg/kg orally, mean±standard error) was 0.00 ± 0.00. The “gait pattern AB” value ([3]; AB: right forepaw → left hindpaw → left forepaw → right hindpaw, 0.1 mg/kg orally, mean±standard error) was 81.86 ± 4.25, the “gait pattern CA” value ([3]; CA: right forepaw → left forepaw → right hindpaw → left hindpaw, 0.1 mg/kg orally, mean±standard error) was 13.39 ± 4.00 and the “gait pattern CB” value ([3]; CB: right forepaw → left hindpaw → right hindpaw → left forepaw, 0.1 mg/kg orally, mean±standard error) was 4.75 ± 1.79. The “change of gait pattern compared to the vehicle administration group” value ([3]; 0.1 mg/kg orally) was “an increase in pattern AB and a decrease in pattern CB”, the “maximum contact area, left forepaw” value [3, 6] was 0.30 ± 0.02 and the “maximum contact area, left hindpaw” value [3, 6] was 0.31 ± 0.02. The “maximum contact area, right forepaw” value [3, 6] was 0.29 ± 0.02, the “maximum contact area, right hindpaw” value [3, 6] was 0.30 ± 0.02 and the “print area, left forepaw” value [3, 6] was 0.40 ± 0.02. For the same molecule, the “print area, left hindpaw” value [3, 6] was 0.38 ± 0.03, the “print area, right forepaw” value [3, 6] was 0.39 ± 0.02 and the “print area, right hindpaw” value [3, 6] was 0.37 ± 0.03. For the same molecule, the “maximum contact area and gait area of the left hindpaw compared to the vehicle administration group” value ([3]; 0.1 mg/kg orally, p<0.05) was “significantly large”, the “maximum contact area and gait area of the right forepaw compared to the vehicle administration group” value ([3]; 0.1 mg/kg orally, p<0.1) was “tendency of the maximum contact area and gait area of the right forepaw being large” and the “pathology (cognitive impairment and/or movement disorder) by Y-maze, spontaneous motor activity, CATWALK” value [4] was “Improvement of the pathology”.
